Measured values reported in PubChem BioAssay (NCI).
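Results reflect a 48-hour exposure of cells in 96-well plates to compound at five concentrations. GI50: concentration for 50% inhibition of growth. At the TGI there is no net growth.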

How the values were obtained:
Assay in all cases: NCI anticancer screen, dose series, 48 h
A498 renal = tested on: A498 renal
EKVX NSCLC = tested on: EKVX NSCLC
HOP-62 NSCLC = tested on: HOP-62 NSCLC
NCI-H226 lung = tested on: NCI-H226 lung
SK-MEL-5 melanoma = tested on: SK-MEL-5 melanoma
SK-OV-3 ovarian = tested on: SK-OV-3 ovarian
UACC-62 melanoma = tested on: UACC-62 melanoma
UO-31 renal = tested on: UO-31 renal
DU-145 prostate = tested on: DU-145 prostate
PC-3 prostate = tested on: PC-3 prostate

Structure (SMILES) | TGI (A498 renal) | TGI (EKVX NSCLC) | TGI (HOP-62 NSCLC) | TGI (NCI-H226 lung) | TGI (SK-MEL-5 melanoma) | TGI (SK-OV-3 ovarian) | TGI (UACC-62 melanoma) | TGI (UO-31 renal) | GI50 (A498 renal) | GI50 (DU-145 prostate) | TGI (DU-145 prostate) | GI50 (HOP-62 NSCLC) | GI50 (NCI-H226 lung) | GI50 (PC-3 prostate) | TGI (PC-3 prostate) | GI50 (SK-MEL-5 melanoma) | GI50 (SK-OV-3 ovarian) | GI50 (UACC-62 melanoma) | GI50 (UO-31 renal) | GI50 (EKVX NSCLC)
NCC(NC(=O)OCc1ccccc1)C(=O)O (configuration not stated) | > 50 µM | > 50 µM | > 50 µM | > 50 µM | > 50 µM | > 50 µM | > 50 µM | > 50 µM |  |  |  |  |  |  |  |  |  |  |  | 
CC1=C(c2cc(C(=O)Nc3ccc(Cl)c(Cl)c3)nc(N)n2)Sc2ccccc2N1 | > 100 µM | > 100 µM | > 100 µM | > 100 µM | > 100 µM | > 100 µM | > 100 µM | > 100 µM |  |  |  |  |  |  |  |  |  |  |  | 
CC(=O)OC1C(CCl)OC(N=[N+]=[N-])C(OC(C)=O)C1OC(C)=O (configuration not stated) | > 100 µM | > 100 µM | > 100 µM |  | > 100 µM | > 100 µM | > 100 µM | > 100 µM |  |  |  |  |  |  |  |  |  |  |  | 
N#CCC(=O)N/N=C1\C(=O)N(c2ccc(Cl)cc2)C(=O)C(=O)C1c1nc2ccccc2o1 (configuration not stated) | > 100 µM | > 100 µM | > 100 µM | > 100 µM | > 100 µM | > 100 µM | > 100 µM | > 100 µM |  |  |  |  |  |  |  |  |  |  |  | 
COC(=O)Nc1nc2cc3c(cc2s1)OCCO3 | > 50 µM |  | > 50 µM | > 50 µM | > 50 µM | > 50 µM | > 50 µM | > 50 µM | > 50 µM | > 50 µM | > 50 µM | > 50 µM | > 50 µM | > 50 µM | > 50 µM | > 50 µM | > 50 µM | > 50 µM | > 50 µM | 
Clc1ccc(OC2CCO2)cc1Cl (configuration not stated) | > 100 µM | > 100 µM | > 100 µM | > 100 µM | > 100 µM | > 100 µM | > 100 µM | > 100 µM |  |  |  |  |  |  |  |  |  |  |  | 
COc1cc(C2CC(c3cc(C)ccc3C)=NN2c2ccc(S(=O)(=O)NC(=O)NCc3ccccc3)cc2)cc(OC)c1OC (configuration not stated) | 9.03 µM |  | 37.1 µM | 15.6 µM | 4.36 µM | 18.4 µM | 4.48 µM | 15.6 µM | 3.09 µM | 6.05 µM | 30.8 µM | 4.3 µM | 3.63 µM | 2.54 µM | 12.3 µM | 2.04 µM | 4.98 µM | 1.98 µM | 3.56 µM | 
O=C(O)C#CCO | > 100 µM | > 100 µM | > 100 µM |  | > 100 µM | > 100 µM | > 100 µM | > 100 µM |  |  |  |  |  |  |  |  |  |  |  | 
O=c1c2ccccc2c(=O)c2c1cc(Cl)c1[nH]c3c([nH]c12)c(Cl)cc1c(=O)c2ccccc2c(=O)c13 | > 100 µM | > 100 µM | > 100 µM | > 100 µM |  | > 100 µM | > 100 µM | > 100 µM |  |  |  |  |  |  |  |  |  |  |  | 
COc1cccc(C2NC(=S)NC(C)=C2C(=O)Nc2ccc(F)c(Cl)c2)c1 (configuration not stated) |  | > 50 µM | > 50 µM |  | 32.9 µM | > 50 µM | > 50 µM | > 50 µM |  | 36.3 µM | > 50 µM | > 50 µM |  | 23.2 µM | > 50 µM | 13.3 µM | > 50 µM | 29.3 µM | 20.4 µM | 22.8 µM
Cc1cc(C(=O)N2CCN(Cc3ccccc3)CC2)c(C)o1 | > 100 µM | > 100 µM | > 100 µM |  | > 100 µM | > 100 µM | > 100 µM | > 100 µM |  |  |  |  |  |  |  |  |  |  |  | 
C[C@H]1CC(=O)C2=CCCC3(SCCCS3)[C@@H]2[C@H]1CO | > 100 µM | > 100 µM | > 100 µM | > 100 µM | > 100 µM | > 100 µM | > 100 µM | > 100 µM |  |  |  |  |  |  |  |  |  |  |  | 
COC(=O)C1CCC(Nc2cccc(C(F)(F)F)c2)=N1 (configuration not stated) | > 100 µM | > 100 µM | > 100 µM | > 100 µM |  | > 100 µM | > 100 µM | > 100 µM |  |  |  |  |  |  |  |  |  |  |  | 
COc1ccc(/C=C/c2cc(N3CCOCC3)c3cc(F)c(F)cc3n2)cc1OC | 4.63 µM |  | 7.25 µM | 4.82 µM | 2.37 µM | 9.17 µM | 2.24 µM | 10.3 µM | 1.23 µM | 1.58 µM | 11.8 µM | 0.667 µM | 1.1 µM | 0.846 µM | 14.4 µM | 0.52 µM | 1.32 µM | 0.436 µM | 0.347 µM | 
O=C(O)C1CCCCN1C(=O)c1ccccc1 (configuration not stated) | > 100 µM | > 100 µM | > 100 µM |  | > 100 µM | > 100 µM | > 100 µM | > 100 µM |  |  |  |  |  |  |  |  |  |  |  | 
CCN(CC)CCNC(=O)c1cccc2cc3ccccc3nc12 | 22.2 µM | 41.6 µM | 36.9 µM | 15.9 µM | 17.1 µM | 37.9 µM | 15.9 µM | 22.1 µM |  |  |  |  |  |  |  |  |  |  |  | 
C=C(C)[C@@H]1CCC2=C[C@@H](OC2=O)[C@@H](C(=C)C)C(=O)/C=C(/C)C(=O)C1 | 69.6 µM | > 100 µM | > 100 µM | > 100 µM | 39.4 µM |  | 61.1 µM | > 100 µM | 26.7 µM | 34.9 µM | > 100 µM | 36.2 µM | 36.9 µM | 8.79 µM | 39.3 µM | 18.6 µM |  | 24.8 µM | 42.2 µM | 52.4 µM
CC[O-].Cc1ccc2cccc([O-])c2n1.Cc1ccc2cccc([O-])c2n1.Cc1ccc2cccc([O-])c2n1.[Ti+4] | > 100 µM | > 73.5 µM | > 100 µM | > 100 µM | 52 µM | > 100 µM | > 52.2 µM | > 100 µM | > 63.2 µM |  |  | 53.6 µM | > 59.6 µM |  |  | 22.6 µM | > 68.9 µM | > 35.3 µM | > 100 µM | > 46 µM
COc1cc2cc[n+]3c4cc(OC)c(OC)cc4c(C)cc3c2cc1OC |  | > 100 µM | > 100 µM | > 100 µM | > 100 µM | > 100 µM | > 100 µM | > 100 µM |  |  |  |  |  |  |  |  |  |  |  | 
COc1ccc(-c2cc(/C=C3\C(=O)Nc4ccc(OC)cc43)[nH]n2)cc1 |  |  | > 100 µM | > 100 µM | > 100 µM | > 100 µM | > 100 µM | > 100 µM |  | > 100 µM | > 100 µM | 10.6 µM | > 100 µM | > 100 µM | > 100 µM | 4.46 µM | 73.2 µM | 6.43 µM | > 100 µM | 
